Test results reported in US20160002180A1, “ANTIVIRAL COMPOUNDS” (priority 2013, published 2016).

Tests used:
Experiment in all cases: microbe, parasite or virus in culture
Assay type in all cases: cell-based
[1] = system: HCVpp GT-1a (pseudotyped HCV GT1a particles, E1 and E2 envelope proteins of GT1a H77 strain); settings: Hepatitis C virus, 72 h, read-out: HCVpp GT-1a (EC50, μM)
[2] = system: HCVpp GT-1b (pseudotyped HCV GT1b particles, E1 and E2 envelope proteins of GT1b Con1 strain); settings: Hepatitis C virus, 72 h, read-out: HCVpp GT-1b (EC50, μM)
[3] = system: VSVpp (pseudotyped VSV G particles); settings: Vesicular stomatitis virus, 72 h, read-out: VSVpp (EC50, μM)

Compound	EC50 [1] [µM]	EC50 [2] [µM]	EC50 [3] [µM]
COc1n[nH]c(Nc2cc(Cl)c(Br)c(Cl)c2)n1 [Compound 11, (4-Bromo-3,5-dichloro-phenyl)-(5-methoxy-2H-[1,2,4]triazol-3-yl)-amine]	2.1	7.23	12.7
Clc1cc(Cl)cc(Nc2nc(Cl)n[nH]2)c1 [Compound 12, (5-Chloro-2H-[1,2,4]triazol-3-yl)-(3,5-dichloro-phenyl)-amine]	13.8	–	14
Clc1cc(Nc2ncn[nH]2)cc(Cl)c1Cl [Compound 17, (2H-[1,2,4]Triazol-3-yl)-(3,4,5-trichloro-phenyl)-amine]	0.392	–	28.2
CN(C)c1nc(Nc2cc(Cl)c(Br)c(Cl)c2)n[nH]1 [Compound 16, N^3-(4-Bromo-3,5-dichloro-phenyl)-N^5,N^5-dimethyl-1H-[1,2,4]triazole-3,5-diamine]	1.58	–	43.1
Clc1cc(Cl)cc(Nc2ncnn2Cc2ccccc2)c1 [Compound 24, (2-Benzyl-2H-[1,2,4]triazol-3-yl)-(3,5-dichloro-phenyl)-amine]	27.1	32.5	34.9
COc1n[nH]c(Nc2ccc(C#N)c(C(F)(F)F)c2)n1 [Compound 10, 4-(5-Methoxy-2H-[1,2,4]triazol-3-ylamino)-2-trifluoromethyl-benzonitrile]	7.53	7.83	8.3
CS(=O)(=O)c1n[nH]c(Nc2cc(Cl)c(Br)c(Cl)c2)n1 [Compound 14, (4-Bromo-3,5-dichloro-phenyl)-(5-methanesulfonyl-2H-[1,2,4]triazol-3-yl)-amine]	100	–	100
N#Cc1c(Cl)cc(Nc2ncn[nH]2)cc1Cl [Compound 20, 2,6-Dichloro-4-(2H-[1,2,4]triazol-3-ylamino)-benzonitrile]	0.121	1.66	100
CC(C)c1nc(Nc2cc(Cl)cc(Cl)c2)n[nH]1 [Compound 32, (3,5-Dichloro-phenyl)-(5-isopropyl-1H-[1,2,4]triazol-3-yl)-amine]	22.1	–	33.8
NCc1nc(Nc2cc(Cl)cc(Cl)c2)n[nH]1 [Compound 3, (5-Aminomethyl-1H-[1,2,4]triazol-3-yl)-(3,5-dichloro-phenyl)-amine]	–	100	100
Clc1cc(Nc2nc[nH]n2)cc(Cl)n1 [Compound 30, (2,6-Dichloro-pyridin-4-yl)-(1H-[1,2,4]triazol-3-yl)-amine]	1.06	–	100
Clc1cc(Cl)cc(Nc2nc(Br)n[nH]2)c1 [Compound 7, (5-Bromo-2H-[1,2,4]triazol-3-yl)-(3,5-dichloro-phenyl)-amine]	16.5	20.8	28.2
CNc1nc(Nc2cc(Cl)cc(Cl)c2)n[nH]1 [Compound 19, N^3-(3,5-Dichloro-phenyl)-N^5-methyl-1H-[1,2,4]triazole-3,5-diamine]	3.41	–	100
CS(=O)(=O)c1n[nH]c(Nc2cc(Cl)cc(Cl)c2)n1 [Compound 13, (3,5-Dichloro-phenyl)-(5-methanesulfonyl-2H-[1,2,4]triazol-3-yl)-amine]	100	–	100
Clc1cc(Cl)cc(Nc2n[nH]c(Cc3ccccc3)n2)c1 [Compound 34, (5-Benzyl-1H-[1,2,4]triazol-3-yl)-(3,5-dichloro-phenyl)-amine]	0.785	13.5	38.9
COCc1n[nH]c(Nc2cc(Cl)nc(Cl)c2)n1 [Compound 6, (2,6-Dichloro-pyridin-4-yl)-(5-methoxymethyl-2H-[1,2,4]triazol-3-yl)-amine]	4.59	35.5	100
Clc1cc(Nc2ncn[nH]2)cc(Cl)c1Br [Compound 18, (4-Bromo-3,5-dichloro-phenyl)-(2H-[1,2,4]triazol-3-yl)-amine]	0.252	2.52	22.4

Compound	EC50 [1] [µM]	EC50 [2] [µM]	EC50 [3] [µM]
CN(C)c1nc(Nc2cc(Cl)cc(Cl)c2)n[nH]1 [Compound 15, N^3-(3,5-Dichloro-phenyl)-N^5,N^5-dimethyl-1H-[1,2,4]triazole-3,5-diamine]	24.8	–	100
COc1n[nH]c(Nc2cc(Cl)nc(Cl)c2)n1 [Compound 9, (2,6-Dichloro-pyridin-4-yl)-(5-methoxy-2H-[1,2,4]triazol-3-yl)-amine]	13.2	45.3	98
Clc1cc(Cl)cc(Nc2n[nH]c(-c3ccccc3)n2)c1 [Compound 2, (3,5-Dichloro-phenyl)-(5-phenyl-1H-[1,2,4]triazol-3-yl)-amine]	26.7	27.5	30.1
Fc1c(Cl)cc(Nc2ncnn2Cc2ccccc2)cc1Cl [Compound 26, (2-Benzyl-2H-[1,2,4]triazol-3-yl)-(3,5-dichloro-4-fluoro-phenyl)-amine]	16.2	27.1	17.5
COc1n[nH]c(Nc2cc(Cl)cc(Cl)c2)n1 [Compound 8, (3,5-Dichloro-phenyl)-(5-methoxy-2H-[1,2,4]triazol-3-yl)-amine]	15.9	52.6	100
CNc1nc(Nc2ccc(C#N)c(C(F)(F)F)c2)n[nH]1 [Compound 21, 4-(5-Methylamino-1H-[1,2,4]triazol-3-ylamino)-2-trifluoromethyl-benzonitrile]	1.26	5.01	24.9
CC(C)Cc1nc(Nc2cc(Cl)cc(Cl)c2)n[nH]1 [Compound 33, (3,5-Dichloro-phenyl)-(5-isobutyl-1H-[1,2,4]triazol-3-yl)-amine]	1.26	61.7	100
COCc1n[nH]c(Nc2cc(Cl)cc(Cl)c2)n1 [Compound 5, (3,5-Dichloro-phenyl)-(5-methoxymethyl-2H-[1,2,4]triazol-3-yl)-amine]	4.13	24.2	100
Fc1c(Cl)cc(Nc2nc[nH]n2)cc1Cl [Compound 28, (3,5-Dichloro-4-fluoro-phenyl)-(1H-[1,2,4]triazol-3-yl)-amine]	0.477	3.77	84.1
Clc1cc(Cl)cc(Nc2ncn(Cc3ccccc3)n2)c1 [Compound 23, (1-Benzyl-1H-[1,2,4]triazol-3-yl)-(3,5-dichloro-phenyl)-amine]	28.9	53	46.5
Nc1cccc(Nc2ncn(Cc3ccccc3)n2)c1 [Compound 29, N-(1-Benzyl-1H-[1,2,4]triazol-3-yl)-benzene-1,3-diamine]	95	87.2	100
Clc1cc(Cl)cc(Nc2nc[nH]n2)c1 [Compound 25, (3,5-Dichloro-phenyl)-(1H-[1,2,4]triazol-3-yl)-amine]	1.06	5.17	97
Cc1nc(Nc2cc(Cl)cc(Cl)c2)n[nH]1 [Compound 1, (3,5-Dichloro-phenyl)-(5-methyl-1H-[1,2,4]triazol-3-yl)-amine]	1.99	6.25	100
Fc1c(Cl)cc(Nc2n[nH]c(N3CCOCC3)n2)cc1Cl [Compound 31, (3,5-Dichloro-4-fluoro-phenyl)-(5-morpholin-4-yl-1H-[1,2,4]triazol-3-yl)-amine]	25.8	–	29.9
Fc1c(Cl)cc(Nc2ncn(Cc3ccccc3)n2)cc1Cl [Compound 27, (1-Benzyl-1H-[1,2,4]triazol-3-yl)-(3,5-dichloro-4-fluoro-phenyl)-amine]	6.13	8.91	9.11
Fc1n[nH]c(Nc2cc(Cl)cc(Cl)c2)n1 [Compound 4, (3,5-Dichloro-phenyl)-(5-fluoro-2H-[1,2,4]triazol-3-yl)-amine]	28.7	30.1	30.9
FC(F)(F)c1nc(Nc2cc(Cl)cc(Cl)c2)n[nH]1 [Compound 22, (3,5-Dichloro-phenyl)-(5-trifluoromethyl-1H-[1,2,4]triazol-3-yl)-amine]	5.5	5.63	6.7
